The NIST ThermoML archive (doi:10.1016/j.jct.2010.04.001)
“And” between values parts separate entries of the source, which are not always exact repeats. Equal entries are not always repeated.

Conditions: Crystal, Calculated from knudsen effusion weight loss

O=C(c1ccc[nH]1)C(Cl)(Cl)Cl [2-trichloroacetyl-1H-pyrrole]
Conditions | vapor or sublimation pressure
295.12 K | 0.000103 kPa and 9.92e-05 kPa and 0.000101 kPa
297.17 K | 0.000132 kPa and 0.000129 kPa
299.22 K | 0.000169 kPa and 0.000165 kPa and 0.000162 kPa
301.14 K | 0.000213 kPa and 0.000218 kPa
303.23 K | 0.000274 kPa and 0.000272 kPa and 0.000268 kPa
305.2 K | 0.000344 kPa and 0.000336 kPa and 0.000335 kPa
307.1 K | 0.000434 kPa and 0.00043 kPa and 0.000424 kPa
309.13 K | 0.000539 kPa and 0.000531 kPa and 0.000527 kPa
311.21 K | 0.000674 kPa and 0.000661 kPa and 0.000652 kPa
313.11 K | 0.000861 kPa and 0.000843 kPa and 0.000837 kPa
315.16 K | 0.00106 kPa and 0.001043 kPa and 0.001028 kPa
317.2 K | 0.001327 kPa and 0.001289 kPa and 0.00127 kPa

O=C(c1ccc[nH]1)C(F)(F)F [2-trifluoroacetylpyrrole]
Conditions | vapor or sublimation pressure
263.19 K | 0.000433 kPa and 0.000414 kPa and 0.000406 kPa
264.14 K | 0.00048 kPa and 0.000469 kPa
265.11 K | 0.000533 kPa and 0.000531 kPa
266.12 K | 0.000597 kPa and 0.00064 kPa and 0.000623 kPa
267.12 K | 0.000716 kPa and 0.00069 kPa and 0.00067 kPa
268.12 K | 0.000809 kPa and 0.000796 kPa and 0.000771 kPa
269.11 K | 0.0009 kPa and 0.000894 kPa and 0.000866 kPa
270.11 K | 0.001022 kPa and 0.000993 kPa
271.13 K | 0.001147 kPa and 0.00113 kPa and 0.001101 kPa
